From US10851065B2 (Eisai R&D Management Co., Ltd., priority 2015, dated 2020)

What was measured:
[1] = system: MCF7-Y537S cells (MCF7 ER-alpha Y537S mutant); assay: In vitro proliferation (viability) assay, CellTiter-Glo, MCF7-Y537S cells; type: cell-based; details: Homo sapiens; MCF7-Y537S cells, 6 days, CTG vs day 0; mean ± SD-type spread (n); read-out: GI50 MUT (Y537S)
Outline: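 Stable lentiviral MCF7 lines expressing WT or Y537S ESR1 seeded at 1500 cells/well; next day dosed with 10-point 1:4 dilutions in triplicate, with media/compound refreshed on day 3. CellTiter-Glo luminescence on day 6 compared with a day 0 reading to give GI50.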

[2] = system: MCF7-WT cells (MCF7 ER-alpha wildtype); assay: In vitro proliferation (viability) assay, CellTiter-Glo, MCF7-WT cells; type: cell-based; details: Homo sapiens; MCF7-WT cells, 6 days, CTG vs day 0; mean ± SD-type spread (n); read-out: GI50 WT

SMILES | GI50 [1] [nM] | GI50 [2] [nM]
CC/C(=C(/c1ccc(OCCNC/C=C/C(=O)N(C)C)cc1)c1ccc2[nH]ncc2c1)c1ccc(C(C)C)cc1 [Compound 29, (E)-4-((2-(4-((E)-1-(1H-indazol-5-yl)-2-(4-isopropylphenyl)but-1-en-1-yl)phenoxy)ethyl)amino)-N,N-dimethylbut-2-enamide] | 58.7 | 3.37
[2H]c1c([2H])c([2H])c(/C(CC)=C(\c2ccc(OCCNC/C=C/C(=O)N(C)C)cc2)c2ccc3[nH]ncc3c2)c([2H])c1[2H] [Compound 88, (E)-4-((2-(4-((E)-1-(1H-indazol-5-yl)-2-(phenyl-d5)but-1-en-1-yl)phenoxy)ethyl)amino)-N,N-dimethylbut-2-enamide] | 12.5 | 0.7
Cc1ccccc1/C(=C(\c1ccc(OCCNC/C=C/C(=O)N2CCC2)cc1)c1ccc2[nH]ncc2c1)C1CCC1 [Compound 42, (E)-1-(azetidin-1-yl)-4-((2-(4-((E)-2-cyclobutyl-1-(1H-indazol-5-yl)-2-(o-tolyl)vinyl)phenoxy)ethyl)amino)but-2-en-1-one] | 69.4 ± 29.1 | 2.68 ± 1.66
CC/C(=C(/c1ccc(OCCNC/C=C/C(=O)N(C)C)cc1)c1ccc2[nH]ncc2c1)c1ccccc1OC [Compound 31] | 13.1 | 0.83
CN(C)C(=O)/C=C/CNCCOc1ccc(/C(=C(\c2ccccc2)C2CCC2)c2ccc3[nH]ncc3c2)cc1 [Compound 13, (E)-4-((2-(4-((E)-2-cyclobutyl-1-(1H-indazol-5-yl)-2-phenylvinyl)phenoxy)ethyl)amino)-N,N-dimethylbut-2-enamide] | 20 ± 13.7 | 2.08 ± 1.57
CC/C(=C(/c1ccc(OC(C)C(C)NC/C=C/C(=O)N(C)C)cc1)c1ccc2[nH]ncc2c1)c1ccccc1 (stereo not drawn) [Compound 96, (E)-4-((3-(4-((E)-1-(1H-indazol-5-yl)-2-phenylbut-1-en-1-yl)phenoxy)butan-2-yl)amino)-N,N-dimethylbut-2-enamide] | 27.2 | 2
CN(C)C(=O)/C=C/CNCCOc1ccc(/C(=C(\c2ccccc2)C2CCC2)c2ccc3[nH]nc(F)c3c2)cn1 [Compound 72, (E)-4-((2-((5-((Z)-2-cyclobutyl-1-(3-fluoro-1H-indazol-5-yl)-2-phenylvinyl)pyridin-2-yl)oxy)ethyl)amino)-N,N-dimethylbut-2-enamide] | 32.7 | 2
C#CCCN(C)C(=O)/C=C/CNCCOc1ccc(/C(=C(/CC)c2ccccc2)c2ccc3[nH]ncc3c2)cc1 [Compound 9, (E)-4-((2-(4-((E)-1-(1H-indazol-5-yl)-2-phenylbut-1-en-1-yl)phenoxy)ethyl)amino)-N-(but-3-yn-1-yl)-N-methylbut-2-enamide] | 118 | 5.57
CC/C(=C(/c1ccc(OCCNC/C=C/C(=O)N(C)CCO)cc1)c1ccc2[nH]ncc2c1)c1ccccc1C [Compound 26, (E)-4-((2-(4-((E)-1-(1H-indazol-5-yl)-2-(o-tolyl)but-1-en-1-yl)phenoxy)ethyl)amino)-N-(2-hydroxyethyl)-N-methylbut-2-enamide] | 32.5 ± 16.7 | 2.18 ± 0.87
CC/C(=C(/c1ccc(OCCNC/C=C/C(=O)N(C)C)cc1)c1ccc2[nH]ncc2c1)c1ccccc1CC [Compound 35, (E)-4-((2-(4-((E)-2-(2-ethylphenyl)-1-(1H-indazol-5-yl)but-1-en-1-yl)phenoxy)ethyl)amino)-N,N-dimethylbut-2-enamide] | 47.8 ± 15.6 | 6.22 ± 0.58
CC/C(=C(/c1ccc(OCCNC/C=C/C(=O)N2CCCC2)cc1)c1ccc2[nH]ncc2c1)c1ccccc1 [Compound 11, (E)-4-((2-(4-((E)-1-(1H-indazol-5-yl)-2-phenylbut-1-en-1-yl)phenoxy)ethyl)amino)-1-(pyrrolidin-1-yl)but-2-en-1-one] | 14 | 0.76
CC/C(=C(/c1ccc(OCCNC/C=C/C(=O)N(C)C)cc1)c1ccc2[nH]ncc2c1)c1ccccc1OC(F)(F)F [Compound 33, (E)-4-((2-(4-((E)-1-(1H-indazol-5-yl)-2-(2-(trifluoro-methoxy)phenyl)but-1-en-1-yl)phenoxy)ethyl)amino)-N,N-dimethylbut-2-enamide] | 29.3 | 2.5
CC/C(=C(/c1ccc(OC(C)CNC/C=C/C(=O)N(C)C)cc1)c1ccc2[nH]ncc2c1)c1ccccc1 (stereo not drawn) [Compound 90, (E)-4-((2-(4-((E)-1-(1H-indazol-5-yl)-2-phenylbut-1-en-1-yl)phenoxy)propyl)amino)-N,N-dimethylbut-2-enamide] | 22.7 | 2.5
CC/C(=C(/c1ccc(OCCCNC/C=C/C(=O)N(C)C)cc1)c1ccc2[nH]ncc2c1)c1ccccc1 [Compound 95, (E)-4-((3-(4-((E)-1-(1H-indazol-5-yl)-2-phenylbut-1-en-1-yl)phenoxy)propyl)amino)-N,N-dimethylbut-2-enamide] | 32.4 | 1.8

Further lines, results first:

GI50 [1] [nM] | GI50 [2] [nM] | SMILES
67.5 | 2.46 | CC/C(=C(/c1ccc(OCCNC/C=C/C(=O)N(C)C)cc1)c1ccc2[nH]nc(F)c2c1)c1c(F)cccc1F [Compound 50, (E)-4-((2-(4-((E)-2-(2,6-difluorophenyl)-1-(3-fluoro-1H-indazol-5-yl)but-1-en-1-yl)phenoxy)ethyl)amino)-N,N-dimethylbut-2-enamide]
21.6 ± 0.26 | 2.42 ± 1.95 | CC/C(=C(/c1ccc(OCCNC/C=C\C(=O)N(C)C)cc1)c1ccc2[nH]ncc2c1)c1ccccc1 [Compound 22, (Z)-4-((2-(4-((E)-1-(1H-indazol-5-yl)-2-phenylbut-1-en-1-yl)phenoxy)ethyl)amino)-N,N-dimethylbut-2-enamide]
30.3 | 2.8 | CC/C(=C(/c1ccc(OCCNC/C=C/C(=O)N(C)C)nc1)c1ccc2[nH]nc(F)c2c1)c1ccccc1 [Compound 68, (E)-4-((2-((5-((Z)-1-(3-fluoro-1H-indazol-5-yl)-2-phenylbut-1-en-1-yl)pyridin-2-yl)oxy)ethyl)amino)-N,N-dimethylbut-2-enamide]
111 ± 124 | 2.93 ± 2.83 | CC/C(=C(/c1ccc(OCCNC/C=C/C(=O)N(C)C)cc1)c1ccc2[nH]ncc2c1)c1ccc(F)c(F)c1 [Compound 6, (E)-4-((2-(4-((E)-2-(3,4-difluorophenyl)-1-(1H-indazol-5-yl)but-1-en-1-yl)phenoxy)ethyl)amino)-N,N-dimethylbut-2-enamide]
12.4 | 0.95 | CN(C)C(=O)/C=C/CNCCOc1ccc(/C(=C(\c2ccc(F)cc2Cl)C2CCC2)c2ccc3[nH]nc(F)c3c2)cc1 [Compound 46, (E)-4-((2-(4-((E)-2-(2-chloro-4-fluorophenyl)-2-cyclobutyl-1-(3-fluoro-1H-indazol-5-yl)vinyl)phenoxy)ethyl)amino)-N,N-dimethylbut-2-enamide]
66 | 4 | CC/C(=C(/c1ccc(OCCNC/C=C/C(=O)N(C)C)cc1)c1ccc2[nH]nc(F)c2c1)c1ccc(F)cc1F [Compound 65, (E)-4-((2-(4-((E)-2-(2,4-difluorophenyl)-1-(3-fluoro-1H-indazol-5-yl)but-1-en-1-yl)phenoxy)ethyl)amino)-N,N-dimethylbut-2-enamide]
28.8 ± 14 | 1.8 ± 0.5 | CC/C(=C(/c1ccc(OCCNC/C=C/C(=O)N(C)C)cc1)c1ccc2[nH]ncc2c1)c1ccc(F)cc1Cl [Compound 74, (E)-4-((2-(4-((E)-2-(2-chloro-4-fluorophenyl)-1-(1H-indazol-5-yl)but-1-en-1-yl)phenoxy)ethyl)amino)-N,N-dimethylbut-2-enamide]
